The record followed here is ChEMBL document CHEMBL4765450, “The components and activities analysis of a novel anticoagulant candidate dHG-5” (Eur J Med Chem, 2020).

Calls of active or inactive are those of the source. The rule behind the calls is not given here.

The target in series [1] is Coagulation factor XI (Homo sapiens) (UniProt P03951). As to the kind of experiment: Inhibition of factor 11a (unknown origin) at IC50 using S-2366 as substrate preincubated for 1 min followed by chromogenic substrate addition and measured for 2 mins. The following applies: time 3.0 min.
Coagulation factor XI (Homo sapiens), sequence (P03951 19-387 limits assumed): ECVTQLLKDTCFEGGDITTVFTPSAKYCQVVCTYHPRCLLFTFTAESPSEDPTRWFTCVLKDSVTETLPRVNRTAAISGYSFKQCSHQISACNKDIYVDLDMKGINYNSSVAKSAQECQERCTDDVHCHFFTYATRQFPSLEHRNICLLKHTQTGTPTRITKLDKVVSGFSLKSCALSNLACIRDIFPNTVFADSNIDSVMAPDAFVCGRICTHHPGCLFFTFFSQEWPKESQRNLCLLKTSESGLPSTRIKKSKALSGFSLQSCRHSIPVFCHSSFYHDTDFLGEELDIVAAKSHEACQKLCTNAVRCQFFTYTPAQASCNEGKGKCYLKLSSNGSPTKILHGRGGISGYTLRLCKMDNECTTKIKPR
Coagulation factor XI (Homo sapiens), sequence (P03951 388-625 limits assumed): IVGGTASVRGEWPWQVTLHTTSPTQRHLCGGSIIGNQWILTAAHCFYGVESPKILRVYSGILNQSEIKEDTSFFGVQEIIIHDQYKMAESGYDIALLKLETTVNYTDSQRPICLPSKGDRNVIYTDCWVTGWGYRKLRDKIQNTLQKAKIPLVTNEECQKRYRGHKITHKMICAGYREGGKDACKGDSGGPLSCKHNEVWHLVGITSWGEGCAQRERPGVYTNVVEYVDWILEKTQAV
In series [2] the test system is Plasma. As to the kind of experiment: Anticoagulation activity in human plasma assessed as drug level causing 20 times doubling of APTT preincubated for 2 mins followed by APTT reagent and measured after 3 mins by coagulometric method relative to dHG-5. The following applies: time 5 min. The series is classed as functional.
For series [3], the target named is Prothrombin (Homo sapiens) (UniProt P00734). In words: Inhibition of factor 2a (unknown origin) at IC50 preincubated for 1 min followed by chromogenic substrate addition and measured for 2 mins in presence of AT-III. The settings on record: time 3.0 min.
Series [4] concerns the target T1, Coagulation factor XII (Homo sapiens) (UniProt P00748).
T1 sequence (whole entry): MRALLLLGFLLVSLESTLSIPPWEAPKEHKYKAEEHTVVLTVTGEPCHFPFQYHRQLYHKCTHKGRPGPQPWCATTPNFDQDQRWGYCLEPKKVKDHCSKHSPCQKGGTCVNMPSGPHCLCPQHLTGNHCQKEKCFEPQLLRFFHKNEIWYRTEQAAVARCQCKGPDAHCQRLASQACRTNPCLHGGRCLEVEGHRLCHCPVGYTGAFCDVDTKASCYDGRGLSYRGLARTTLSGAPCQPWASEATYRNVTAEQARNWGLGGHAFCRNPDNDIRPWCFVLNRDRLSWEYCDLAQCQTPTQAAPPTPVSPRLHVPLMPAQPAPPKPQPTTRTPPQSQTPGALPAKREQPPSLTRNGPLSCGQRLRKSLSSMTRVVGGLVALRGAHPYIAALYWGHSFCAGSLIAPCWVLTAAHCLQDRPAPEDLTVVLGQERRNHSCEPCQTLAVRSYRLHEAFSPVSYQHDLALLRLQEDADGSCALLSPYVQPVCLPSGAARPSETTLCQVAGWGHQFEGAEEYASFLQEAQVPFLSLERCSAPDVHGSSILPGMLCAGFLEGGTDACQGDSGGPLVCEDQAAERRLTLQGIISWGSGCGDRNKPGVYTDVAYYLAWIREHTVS
As to the kind of experiment: Inhibition of factor 12a (unknown origin) at IC50 using kallikrein chromogenic substrate preincubated for 1 min followed by chromogenic substrate addition and measured for 2 mins. The settings on record: time 3.0 min.

Series [5] has as its target T2, Coagulation factor IX (Homo sapiens, UniProt P00740). As to the kind of experiment: Inhibition of factor 9a (unknown origin) binding to immobilized biotinylated oHG-11 by biolayer interferometry relative to dHG-5. (BLI is a label-free optical method that tracks binding on a fibre tip over time.)
Series [6] deals with T3, Coagulation factor VII (Homo sapiens) (UniProt P08709).
T3 sequence (whole entry): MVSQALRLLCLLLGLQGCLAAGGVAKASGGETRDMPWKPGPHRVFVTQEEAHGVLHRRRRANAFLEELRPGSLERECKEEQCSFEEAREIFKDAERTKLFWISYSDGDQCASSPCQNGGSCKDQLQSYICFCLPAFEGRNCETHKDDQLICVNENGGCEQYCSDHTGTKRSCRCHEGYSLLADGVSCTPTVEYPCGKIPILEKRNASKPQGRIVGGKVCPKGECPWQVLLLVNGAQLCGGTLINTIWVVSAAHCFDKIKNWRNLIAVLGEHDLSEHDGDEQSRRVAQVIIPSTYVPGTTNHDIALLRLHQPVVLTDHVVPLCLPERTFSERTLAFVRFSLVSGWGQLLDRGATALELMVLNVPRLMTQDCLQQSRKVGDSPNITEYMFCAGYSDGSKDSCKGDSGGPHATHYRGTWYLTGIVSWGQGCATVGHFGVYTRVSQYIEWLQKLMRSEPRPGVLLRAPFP
In words: Inhibition of factor 7a (unknown origin) at IC50 using pefachrome factor VIIa as substrate preincubated for 1 min followed by chromogenic substrate addition and measured for 2 mins. The settings on record: time 3.0 min.

Series [7] has as its target T1, Coagulation factor XII (Homo sapiens). In words: Inhibition of factor 12a (unknown origin) at IC50 using kallikrein chromogenic substrate preincubated for 1 min followed by chromogenic substrate addition and measured for 2 mins in presence of AT-III. The following applies: time 3.0 min.
In series [8] the target is T3, Coagulation factor VII (Homo sapiens). In words: Inhibition of factor 7a (unknown origin) at IC50 using pefachrome factor VIIa as substrate preincubated for 1 min followed by chromogenic substrate addition and measured for 2 mins in presence of AT-III. The settings on record: time 3.0 min.
In series [9] the test system is Plasma. As to the kind of experiment: Anticoagulation activity in human plasma assessed as drug level causing 20 times doubling of APTT by measuring activity potency of oligosaccharides multiplied by the percentage of oligosaccharides in dHG-5 preincubated for 2 mins followed by APTT reagent and measured after 3 mins by coagulometric method relative to dHG-5. The settings on record: time 5 min. The series is classed as functional.

Series [10] has as its system Plasma. In words: Induction of platelet aggregation in rat wash platelet at plasma peak concentration of 10 times anti-thrombosis ED50 measured after 10 mins by light transmission aggregometry.
Series [11] deals with T4, Coagulation factor IX/VIII (Homo sapiens) (UniProt P00740+P00451). In words: Inhibition of human citrated plasma iXase (factor 8a-factor 9a complex) preincubated for 2 mins followed by factor 10 addition and measured after 1 min by FXa chromogenic substrate SXa-11 based assay relative to dHG-5. It is filed as protein-complex assay. The following applies: time 3.0 min.

Series [12] relates to Rattus norvegicus. As to the kind of experiment: Antithrombotic activity in thromboplastin and stasis-induced Sprague-Dawley rat deep venous thrombosis model assessed as reduction in venous thrombosis at 2.7 mg/kg, sc administered 1 hr prior to thromboplastin addition for 20 secs followed by establishment of stasis for 20 mins relative to dHG-5. It is filed as functional. The following applies: time 80.33 min, 1.339 h.

The test system of series [13] is Rattus norvegicus. In words: Antithrombotic activity in thromboplastin and stasis-induced Sprague-Dawley rat deep venous thrombosis model assessed as reduction in venous thrombosis by measuring activity potency of oligosaccharides multiplied by the percentage of oligosaccharides in dHG-5 at 2.7 mg/kg, sc administered 1 hr prior to thromboplastin addition for 20 secs followed by establishment of stasis for 20 mins relative to dHG-5. The settings on record: time 80.33 min, 1.339 h. The series is classed as functional.

Series [14] addresses Coagulation factor XI (Homo sapiens) (UniProt P03951). As to the kind of experiment: Inhibition of factor 11a (unknown origin) at IC90 using S-2366 as substrate preincubated for 1 min followed by chromogenic substrate addition and measured for 2 mins in presence of AT-III. The settings on record: time 3.0 min.
Series [15] deals with T4, Coagulation factor IX/VIII (Homo sapiens). In words: Inhibition of human citrated plasma iXase (factor 8a-factor 9a complex) assessed as activity potency of oligosaccharides multiplied by the percentage of oligosaccharides in dHG-5 preincubated for 2 mins followed by factor 10 addition and measured after 1 min by FXa chromogenic substrate SXa-11 based assay relative to dHG-5. The settings on record: time 3.0 min. The series is classed as protein-complex assay.

Series [16] relates to Plasma. As to the kind of experiment: Induction of platelet aggregation in human platelet rich plasma at plasma peak concentration of 10 times anti-thrombosis ED50 measured after 10 mins by light transmission aggregometry.
Series [17] deals with Coagulation factor X (Homo sapiens) (UniProt P00742). As to the kind of experiment: Inhibition of factor 10a (unknown origin) at IC50 preincubated for 1 min followed by chromogenic substrate addition and measured for 2 mins in presence of AT-III. The following applies: time 3.0 min.
Coagulation factor X (Homo sapiens), sequence (P00742 41-179 limits assumed): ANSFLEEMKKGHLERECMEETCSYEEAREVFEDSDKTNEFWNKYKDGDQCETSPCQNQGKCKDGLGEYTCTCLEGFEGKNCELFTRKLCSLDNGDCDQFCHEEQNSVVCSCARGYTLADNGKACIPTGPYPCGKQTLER
Coagulation factor X (Homo sapiens), sequence (P00742 235-488 limits assumed): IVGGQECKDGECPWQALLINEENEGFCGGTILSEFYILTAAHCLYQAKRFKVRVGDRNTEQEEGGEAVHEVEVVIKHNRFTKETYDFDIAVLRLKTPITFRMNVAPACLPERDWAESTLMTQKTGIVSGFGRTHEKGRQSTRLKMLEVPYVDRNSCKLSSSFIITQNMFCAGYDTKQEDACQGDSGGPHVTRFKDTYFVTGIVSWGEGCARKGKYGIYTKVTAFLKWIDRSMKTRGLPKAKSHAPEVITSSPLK
Series [18] has the same target. In words: Inhibition of factor 10a (unknown origin) at IC50 preincubated for 1 min followed by chromogenic substrate addition and measured for 2 mins. The settings on record: time 3.0 min.
For series [19], the target named is Coagulation factor XI (Homo sapiens) (UniProt P03951). As to the kind of experiment: Inhibition of factor 11a (unknown origin) at IC50 using S-2366 as substrate preincubated for 1 min followed by chromogenic substrate addition and measured for 2 mins in presence of AT-III. The following applies: time 3.0 min.
Series [20] has as its target T2, Coagulation factor IX. As to the kind of experiment: Inhibition of factor 9a (unknown origin) binding to immobilized biotinylated oHG-11 assessed as activity potency of oligosaccharides multiplied by the percentage of oligosaccharides in dHG-5 by biolayer interferometry relative to dHG-5.
Series [21] has as its target Prothrombin (Homo sapiens) (UniProt P00734). As to the kind of experiment: Inhibition of factor 2a (unknown origin) at IC90 preincubated for 1 min followed by chromogenic substrate addition and measured for 2 mins in presence of AT-III. The settings on record: time 3.0 min.
Series [22] shares this target. In words: Inhibition of factor 2a (unknown origin) at IC50 preincubated for 1 min followed by chromogenic substrate addition and measured for 2 mins. The following applies: time 3.0 min.
Series [23] addresses Coagulation factor X (Homo sapiens) (UniProt P00742). As to the kind of experiment: Inhibition of factor 10a (unknown origin) at IC90 preincubated for 1 min followed by chromogenic substrate addition and measured for 2 mins in presence of AT-III relative to control. The settings on record: time 3.0 min.

T2 sequence (P00740 47-191 limits assumed): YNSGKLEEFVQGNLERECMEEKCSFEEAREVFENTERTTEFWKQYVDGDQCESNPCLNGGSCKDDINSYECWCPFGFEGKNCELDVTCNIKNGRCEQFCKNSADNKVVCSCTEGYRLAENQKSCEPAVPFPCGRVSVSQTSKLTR
T2 sequence (P00740 227-461 limits assumed): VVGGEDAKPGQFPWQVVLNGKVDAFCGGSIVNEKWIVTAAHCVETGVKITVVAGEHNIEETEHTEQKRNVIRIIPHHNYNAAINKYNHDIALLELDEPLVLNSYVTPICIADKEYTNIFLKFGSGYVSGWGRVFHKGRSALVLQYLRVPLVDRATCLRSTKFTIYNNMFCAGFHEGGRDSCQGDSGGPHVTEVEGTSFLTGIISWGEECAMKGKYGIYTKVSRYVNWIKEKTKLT

In the case of `CC(=O)N[C@H]1[C@H](O[C@@H]([C@H](O[C@@H]2O[C@@H](C)[C@@H](OS(=O)(=O)[O-])[C@@H](OS(=O)(=O)O)[C@@H]2O)[C@@H](O)CO)[C@H](O)C(=O)[O-])O[C@H](COS(=O)(=O)[O-])[C@H](OS(=O)(=O)[O-])[C@@H]1O[C@@H]1O[C@H](C(=O)[O-])[C@@H](O[C@@H]2O[C@H](COS(=O)(=O)[O-])[C@H](OS(=O)(=O)[O-])[C@H](O[C@@H]3O[C@H](C(=O)[O-])[C@@H](O[C@@H]4O[C@H](COS(=O)(=O)[O-])[C@H](OS(=O)(=O)[O-])[C@H](O[C@@H]5O[C@H](C(=O)[O-])[C@@H](O[C@@H]6O[C@H](COS(=O)(=O)[O-])[C@H](OS(=O)(=O)[O-])[C@H](O[C@@H]7OC(C(=O)[O-])=C[C@H](O[C@@H]8O[C@@H](C)[C@@H](OS(=O)(=O)[O-])[C@@H](OS(=O)(=O)O)[C@@H]8O)[C@H]7O)[C@H]6NC(C)=O)[C@H](O[C@@H]6O[C@@H](C)[C@@H](OS(=O)(=O)[O-])[C@@H](OS(=O)(=O)O)[C@@H]6O)[C@H]5O)[C@H]4NC(C)=O)[C@H](O[C@@H]4O[C@@H](C)[C@@H](OS(=O)(=O)[O-])[C@@H](OS(=O)(=O)O)[C@@H]4O)[C@H]3O)[C@H]2NC(C)=O)[C@H](O[C@@H]2O[C@@H](C)[C@@H](OS(=O)(=O)[O-])[C@@H](OS(=O)(=O)O)[C@@H]2O)[C@H]1O.[Na+].[Na+].[Na+].[Na+].[Na+].[Na+].[Na+].[Na+].[Na+].[Na+].[Na+].[Na+].[Na+].[Na+].[Na+].[Na+].[Na+].[Na+]`, the inhibition entry in series [1], in [3], in series [4], in [7], in [8] and in [17] was “inactive” in each case. The inhibition entry in [18], in [19] and in series [22] was “inactive” throughout. Moreover, the Ratio in the series with Plasma [2] came to 61.09 U; on Coagulation factor IX [5] it was 35.9 U; in the series on Plasma [9] it was 9.73 U; in series [11], 51.8 U; in the series with Rattus norvegicus [12], 113.95 U; in the series with Rattus norvegicus [13], 18.12 U. The Ratio in series [15] is 8.26 U; on Coagulation factor IX [20], 5.72 U. Besides, the “inhibition (active/not active)” value in series [6] is “inactive”. Further, the Activity entry with Plasma [10] and in the series with Plasma [16] was “Not Active” each time. Also, the inhibition result in series [14] and in series [21] was “Active” throughout. In addition, the inhibition in series [23] amounted to 14.2%.

Usually inhibition stands for the percentage by which the read-out fell short of the control.
